The values that follow come from patent US12180485B2, “Repressible control of gene expression” (TRUSTEES OF BOSTON UNIVERSITY, priority 2020, dated 2024).

Entries after “also recorded” stand apart in the source; their conditions may differ. Read-outs that look alike come from different tables or passages of the source.

Data set [1] deals with CID domains. The note with it: cited from earlier work; for Kd: ligand / CID dimerization domain, read-out: Dissociation constant (Kd); for Reversibility: reversibility of the ligand-induced dimerization / action.
Data set [2] concerns mammalian systems. Conditions: cited from earlier work.
The test system of data set [3] is Cre reporter. Description: Caffeine inducible split Cre (CaffVHH), Cre reporter in transfected cells. It counts as cell-based.
In data set [4] the test system is mCherry. Put plainly: mCherry knockdown by inducible split RfxCas13d (ON switch) in transfected HEK 293 FT cells, flow cytometry. It counts as cell-based. Conditions: for knockdown with assistance of gRNA: mCherry; for knockdown across the various CID systems: split pairs coupled with CID domains, with inducer. (In general: In flow cytometry, cells or beads pass a laser one at a time.)

[5] abbreviates: toxicity in mammalian systems at working concentration.

Broadly, the Kd is the concentration at which binding is half-saturated. In the case of `CC1=CC(=O)CC(C)(C)[C@@]1(O)/C=C/C(C)=C\C(=O)O` [Abscisic acid], in data set [1], the Kd is 20 nM and the Reversibility entry was “yes”. For the same molecule, the “Toxicity*” value in data set [2] was “no”.

For `CC/C(=C(\c1ccccc1)c1ccc(OCCN(C)C)cc1)c1ccccc1` [Tamoxifen], the Reversibility result in data set [1] is given as “hardly”. For the same molecule, the “Toxicity*” value in data set [2] (setting [5]) was “no”.

Regarding `CO[C@H]1C[C@@H]2CC[C@@H](C)[C@@](O)(O2)C(=O)C(=O)N2CCCC[C@H]2C(=O)O[C@H]([C@H](C)C[C@@H]2CC[C@@H](O)[C@H](OC)C2)CC(=O)[C@H](C)/C=C(\C)[C@@H](O)[C@@H](OC)C(=O)[C@H](C)C[C@H](C)/C=C/C=C/C=C/1C` [Rapamycin], the “Toxicity*” value in data set [2] (setting [5]) is given as “no”.

For `Cn1c(=O)c2c(ncn2C)n(C)c1=O` [caffeine, reference compound], in data set [1], the Kd was 1200 nM and the Reversibility entry is “yes”. In addition, the “Toxicity*” value in data set [2] (setting [5]) is on record as “no”. Further, in data set [3] (48 hours), the “caffeine concentration able to turn on Cre activity and generate reporter expression” value is 0.1 µM. In addition, in data set [3] (FIG. 1C), the “caffeine concentration not sufficient to induce recombination” value came out at 0.01 µM and the “caffeine concentration over which recombination efficiency did not increase significantly” value is reported as “over 50 uM”.

As to Gibberellin, in data set [1], the Kd is 1000 nM and the Reversibility entry is “yes”. The “Toxicity*” value in data set [2] (setting [5]) was “yes”.

B1: single CaffVHH: single CaffVHH version of split Cre 270/271 (protein)
VHH: EVQLQASGGGLVQAGGSLRLSCTASGRTGTIYSMAWFRQAPGKEREFLATVGWSSGITYYMDSVKGRFTISRDNAKNSAYLQMNSLKPEDTAVYYCTATRAYSVGYDYWGQGTQVTVSH
Consider B1, for which the “caffeine concentration achieving maximum recombination efficiency” value in data set [3] (dose response, split Cre 270/271) turned out to be 500 µM.

B2: 384/385: RfxCas13d split pair at 384/385 (protein)
chain 1: IEKKKSFAKGMGVKSTLVSGSKVYMTTFAEGSDARLEKIVEGDSIRSVNEGEAFSAEMADKNAGYKIGNAKFSHPKGYAVVANNPLYTGPVQQDMLGLKETLEKRYFGESADGNDNICIQVIHNILDIEKILAEYITNAAYAVNNISGLDKDIIGFGKFSTVYTYDEFKDPEHHRAAFNNNDKLINAIKAQYDEFDNFLDNPRLGYFGQAFFSKEGRNYIINYGNECYDILALLSGLRHWVVHNNEEESRISRTWLYNLDKNLDNEYISTLNYLYDRITNELTNSFSKNSAANVNYIAETLGINPAEFAEQYFRFSIMKEQKNLGFNITKLREVMLDRKDMSEIRKNHKVFDSIRTKVYTMMDFVIYRYYIEEDAKVAAANKSL
chain 2: PDNEKSLSEKDIFVINLRGSFNDDQKDALYYDEANRIWRKLENIMHNIKEFRGNKTREYKKKDAPRLPRILPAGRDVSAFSKLMYALTMFLDGKEINDLLTTLINKFDNIQSFLKVMPLIGVNAKFVEEYAFFKDSAKIADELRLIKSFARMGEPIADARRAMYIDAIRILGTNLSYDELKALADTFSLDENGNKLKKGKHGMRNFIINNVISNKRFHYLIRYGDPAHLHEIAKNEAVVKFVLGRIADIQKKQGQNGKNQIDRYYETCIGKDKGKSVSEKVDALTKIITGMNYDQFDKKRSVIEDTGRENAEREKFKKIISLYLTVIYHILKNIVNINARYVIGFHCVERDAQLYKEKGYDINLKKLEEKGFSSVTKLCAGIDETAPDKRKDVEKEMAERAKESIDSLESANPKLYANYIKYSDEKKAEEFTRQINREKAKTALNAYLRNTKWNVIIREDLLRIDNKTCTLFRNKAVHLEVARYVHAYINDIAEVNSYFQLYHYIMQRIIMNERYEKSSGKVSEYFDAVNDEKKYNDRLLKLLCVPFGYCIPRFKNLSIEALFDRNEAAKFDKEKKKVSGNS
Take B2: in data set [4], the “knockdown with assistance of gRNA” value is “relatively efficient knockdown”.

B3: 177/178: RfxCas13d split pair at 177/178 (protein)
chain 1: IEKKKSFAKGMGVKSTLVSGSKVYMTTFAEGSDARLEKIVEGDSIRSVNEGEAFSAEMADKNAGYKIGNAKFSHPKGYAVVANNPLYTGPVQQDMLGLKETLEKRYFGESADGNDNICIQVIHNILDIEKILAEYITNAAYAVNNISGLDKDIIGFGKFSTVYTYDEFKDPEHHRAA
chain 2: FNNNDKLINAIKAQYDEFDNFLDNPRLGYFGQAFFSKEGRNYIINYGNECYDILALLSGLRHWVVHNNEEESRISRTWLYNLDKNLDNEYISTLNYLYDRITNELTNSFSKNSAANVNYIAETLGINPAEFAEQYFRFSIMKEQKNLGFNITKLREVMLDRKDMSEIRKNHKVFDSIRTKVYTMMDFVIYRYYIEEDAKVAAANKSLPDNEKSLSEKDIFVINLRGSFNDDQKDALYYDEANRIWRKLENIMHNIKEFRGNKTREYKKKDAPRLPRILPAGRDVSAFSKLMYALTMFLDGKEINDLLTTLINKFDNIQSFLKVMPLIGVNAKFVEEYAFFKDSAKIADELRLIKSFARMGEPIADARRAMYIDAIRILGTNLSYDELKALADTFSLDENGNKLKKGKHGMRNFIINNVISNKRFHYLIRYGDPAHLHEIAKNEAVVKFVLGRIADIQKKQGQNGKNQIDRYYETCIGKDKGKSVSEKVDALTKIITGMNYDQFDKKRSVIEDTGRENAEREKFKKIISLYLTVIYHILKNIVNINARYVIGFHCVERDAQLYKEKGYDINLKKLEEKGFSSVTKLCAGIDETAPDKRKDVEKEMAERAKESIDSLESANPKLYANYIKYSDEKKAEEFTRQINREKAKTALNAYLRNTKWNVIIREDLLRIDNKTCTLFRNKAVHLEVARYVHAYINDIAEVNSYFQLYHYIMQRIIMNERYEKSSGKVSEYFDAVNDEKKYNDRLLKLLCVPFGYCIPRFKNLSIEALFDRNEAAKFDKEKKKVSGNS
Regarding B3, in data set [4], the “knockdown with assistance of gRNA” value is reported as “relatively efficient knockdown”.

B4: 507/508: RfxCas13d split pair at 507/508 fused to CID or dNS3/ANR domains (protein)
chain 1: IEKKKSFAKGMGVKSTLVSGSKVYMTTFAEGSDARLEKIVEGDSIRSVNEGEAFSAEMADKNAGYKIGNAKFSHPKGYAVVANNPLYTGPVQQDMLGLKETLEKRYFGESADGNDNICIQVIHNILDIEKILAEYITNAAYAVNNISGLDKDIIGFGKFSTVYTYDEFKDPEHHRAAFNNNDKLINAIKAQYDEFDNFLDNPRLGYFGQAFFSKEGRNYIINYGNECYDILALLSGLRHWVVHNNEEESRISRTWLYNLDKNLDNEYISTLNYLYDRITNELTNSFSKNSAANVNYIAETLGINPAEFAEQYFRFSIMKEQKNLGFNITKLREVMLDRKDMSEIRKNHKVFDSIRTKVYTMMDFVIYRYYIEEDAKVAAANKSLPDNEKSLSEKDIFVINLRGSFNDDQKDALYYDEANRIWRKLENIMHNIKEFRGNKTREYKKKDAPRLPRILPAGRDVSAFSKLMYALTMFLDGKEINDLLTTLINKFDNIQSFLKVMPLIGVN
chain 2: AKFVEEYAFFKDSAKIADELRLIKSFARMGEPIADARRAMYIDAIRILGTNLSYDELKALADTFSLDENGNKLKKGKHGMRNFIINNVISNKRFHYLIRYGDPAHLHEIAKNEAVVKFVLGRIADIQKKQGQNGKNQIDRYYETCIGKDKGKSVSEKVDALTKIITGMNYDQFDKKRSVIEDTGRENAEREKFKKIISLYLTVIYHILKNIVNINARYVIGFHCVERDAQLYKEKGYDINLKKLEEKGFSSVTKLCAGIDETAPDKRKDVEKEMAERAKESIDSLESANPKLYANYIKYSDEKKAEEFTRQINREKAKTALNAYLRNTKWNVIIREDLLRIDNKTCTLFRNKAVHLEVARYVHAYINDIAEVNSYFQLYHYIMQRIIMNERYEKSSGKVSEYFDAVNDEKKYNDRLLKLLCVPFGYCIPRFKNLSIEALFDRNEAAKFDKEKKKVSGNS
modifications: fused CID or dNS3/ANR domains
notes: RfxCas13d split pair at 507/508 fused to CID or dNS3/ANR domains
Regarding B4, in data set [4] (GIB: N ss-GAI/GID-ss C, ABA: N ss-PYL/ABI-ss C), the “performance of reversed CID orientation versus original orientation” value is “stronger inducibility and weaker leakiness”. The “knockdown across the various CID systems” value in data set [4] was “consistently strong drug-induced knockdown”.

B5: 655/656: RfxCas13d split pair at 655/656, plain or fused to CID domains (protein)
chain 1: IEKKKSFAKGMGVKSTLVSGSKVYMTTFAEGSDARLEKIVEGDSIRSVNEGEAFSAEMADKNAGYKIGNAKFSHPKGYAVVANNPLYTGPVQQDMLGLKETLEKRYFGESADGNDNICIQVIHNILDIEKILAEYITNAAYAVNNISGLDKDIIGFGKFSTVYTYDEFKDPEHHRAAFNNNDKLINAIKAQYDEFDNFLDNPRLGYFGQAFFSKEGRNYIINYGNECYDILALLSGLRHWVVHNNEEESRISRTWLYNLDKNLDNEYISTLNYLYDRITNELTNSFSKNSAANVNYIAETLGINPAEFAEQYFRFSIMKEQKNLGFNITKLREVMLDRKDMSEIRKNHKVFDSIRTKVYTMMDFVIYRYYIEEDAKVAAANKSLPDNEKSLSEKDIFVINLRGSFNDDQKDALYYDEANRIWRKLENIMHNIKEFRGNKTREYKKKDAPRLPRILPAGRDVSAFSKLMYALTMFLDGKEINDLLTTLINKFDNIQSFLKVMPLIGVNAKFVEEYAFFKDSAKIADELRLIKSFARMGEPIADARRAMYIDAIRILGTNLSYDELKALADTFSLDENGNKLKKGKHGMRNFIINNVISNKRFHYLIRYGDPAHLHEIAKNEAVVKFVLGRIADIQKKQGQNGKNQIDRYYETCIGK
chain 2: DKGKSVSEKVDALTKIITGMNYDQFDKKRSVIEDTGRENAEREKFKKIISLYLTVIYHILKNIVNINARYVIGFHCVERDAQLYKEKGYDINLKKLEEKGFSSVTKLCAGIDETAPDKRKDVEKEMAERAKESIDSLESANPKLYANYIKYSDEKKAEEFTRQINREKAKTALNAYLRNTKWNVIIREDLLRIDNKTCTLFRNKAVHLEVARYVHAYINDIAEVNSYFQLYHYIMQRIIMNERYEKSSGKVSEYFDAVNDEKKYNDRLLKLLCVPFGYCIPRFKNLSIEALFDRNEAAKFDKEKKKVSGNS
Consider B5, for which the “performance after NES/NLS compartmentalization” value in data set [4] (GIB induced split pairs, NES on one moiety, NLS on the other) is “high inducibility with minimal leakiness”. In data set [4], the “knockdown across the various CID systems” value is reported as “efficient knockdown; also recorded: consistently strong drug-induced knockdown”.
